Results on 23 compounds are retold here after US8106055B2, “Substituted amide compounds” (Gruenenthal GmbH, priority 2007, dated 2012).

The term inhibition denotes the relative decrease from the control value, in per cent.

In test [1] the target is T1, serotonin (5-HT) reuptake (Rattus norvegicus, UniProt P31652).
T1 construct: synaptosomes are freshly isolated from areas of the rat brain; from tissue; host or cells: rat brain synaptosomes (P2 fraction)
Put plainly: Inhibition of serotonin (5HT) reuptake in synaptosomes from rat brain. Format: biochemical. The conditions noted are these: test concentration of 10 μM; for inhibition at 10 µM: read-out: 5-HT (inhibition of reuptake of serotonin, % inhibition). The essentials: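 Compounds screened at 10 μM and reported as percent inhibition of serotonin uptake. Uptake measured in a freshly prepared P2 synaptosomal fraction from rat brain.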

In test [2] the target is T2, human bradykinin 1 receptor (B1R) (Homo sapiens, UniProt P46663).
T2 construct: expressed in transfected cells; host or cells: CHO K1 cells
T2 sequence (P46663 1-353): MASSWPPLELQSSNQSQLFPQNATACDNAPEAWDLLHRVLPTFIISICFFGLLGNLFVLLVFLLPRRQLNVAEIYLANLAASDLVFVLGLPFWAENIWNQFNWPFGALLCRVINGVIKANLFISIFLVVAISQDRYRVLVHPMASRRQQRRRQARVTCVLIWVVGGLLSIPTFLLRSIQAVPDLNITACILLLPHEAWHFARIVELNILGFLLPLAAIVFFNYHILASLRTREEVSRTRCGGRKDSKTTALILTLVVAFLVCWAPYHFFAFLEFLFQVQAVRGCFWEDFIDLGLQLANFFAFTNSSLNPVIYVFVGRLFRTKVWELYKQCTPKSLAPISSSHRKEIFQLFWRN
Put plainly: Functional investigation on the human bradykinin 1 receptor (B1R), Ca2+ FLIPR assay in CHO K1 hB1R cells. Format: cell-based. The conditions noted are these: test substance 10 μM, Ca2+ FLIPR, CHO K1 hB1R cells; for B1R Ant. h [10 μM] % Inhibition: B1R antagonism human; for inhibition at 10 µM: CHO-K1, B1R antagonism human, read-out: B1R Ant. h [10 μM] % Inhibition. Summed up:
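Fluo-4 Ca2+ readout, peak fluorescence. Stable CHO K1 transfectants; compound pre-incubated 10-20 min, then EC80 agonist—Lys-Des-Arg9-BK for hB1R, Des-Arg9-BK for rB1R. % inhibition vs maximal inhibition; IC50 from multiple concentrations, duplicate/triplicate, ≥2 independent runs.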

T1 sequence (P31652 whole entry): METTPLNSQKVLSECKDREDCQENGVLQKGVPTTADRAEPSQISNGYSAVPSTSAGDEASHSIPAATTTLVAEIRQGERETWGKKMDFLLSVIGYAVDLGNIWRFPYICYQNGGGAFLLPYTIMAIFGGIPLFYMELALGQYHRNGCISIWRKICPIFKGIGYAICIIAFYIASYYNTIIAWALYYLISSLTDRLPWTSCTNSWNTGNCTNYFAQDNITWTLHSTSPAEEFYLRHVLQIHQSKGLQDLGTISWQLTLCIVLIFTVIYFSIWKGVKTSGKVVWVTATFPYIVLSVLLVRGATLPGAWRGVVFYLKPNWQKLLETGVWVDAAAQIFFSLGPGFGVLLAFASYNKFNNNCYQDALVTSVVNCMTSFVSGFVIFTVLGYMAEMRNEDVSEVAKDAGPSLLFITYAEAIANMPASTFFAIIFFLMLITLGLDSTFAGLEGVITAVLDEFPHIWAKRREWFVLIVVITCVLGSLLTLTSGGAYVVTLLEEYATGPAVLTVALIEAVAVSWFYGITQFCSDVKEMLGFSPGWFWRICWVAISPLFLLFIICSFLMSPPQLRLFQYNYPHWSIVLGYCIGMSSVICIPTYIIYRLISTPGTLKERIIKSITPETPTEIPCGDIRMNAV

For the compound `COc1ccc(S(=O)(=O)N2CCCCC2COCC(=O)NCC2CCC(C(c3ccc(F)cc3)N(C)C)CC2)cc1OC` (single isomer, unassigned) [Example 534], the “5-HT (inhibition of reuptake of serotonin, % inhibition)” value in test [1] (10 µM) came out at 88%. Moreover, the “B1R Ant. h [10 μM] % Inhibition” value in test [2] is given as −18%.
The matching figures for `COc1ccc(S(=O)(=O)N2CCCCC2COCC(=O)NCC2CCC(C(c3ccc(F)cc3)N(C)C)CC2)cc1OC` (single isomer, unassigned) [Example 537]: 92% and −15%.
Regarding `COc1ccc(S(=O)(=O)N2CCCCC2CCOCC(=O)NC2CCC(C(c3cccs3)N(C)C)CC2)cc1` (stereo not shown) [Example 6, N-(4-((dimethylamino)(thiophen-2-yl)methyl)cyclohexyl)-2-(2-(1-(4-methoxyphenylsulfonyl)piperidin-2-yl)ethoxy)acetamide], the inhibition at 10 µM was 91% in test [1] and 24% in test [2].
In the case of `COc1ccc(S(=O)(=O)N2Cc3ccccc3CC2COCC(=O)NCC2CCC(C(c3cccs3)N(C)C)CC2)cc1` (stereo not shown) [Example 7, N-((4-((dimethylamino)(thiophen-2-yl)methyl)cyclohexyl)methyl)-2-((2-(4-methoxyphenylsulfonyl)-1,2,3,4-tetrahydroisoquinolin-3-yl)methoxy)acetamide], the inhibition at 10 µM in test [1] was found to be 92%; in test [2], 47%.
The matching figures for `CN(C)C(c1cccs1)C1CCC(CNC(=O)COCCN(C)S(=O)(=O)c2ccc(Cl)cc2Cl)CC1` (stereo not shown) [Example 8, 2-(2-(2,4-dichloro-N-methylphenylsulfonamido)ethoxy)-N-((4-((dimethylamino)(thiophen-2-yl)methyl)cyclohexyl)methyl)acetamide]: 81% and 101%.
Regarding `Cc1cc(C)c(S(=O)(=O)N(C)CCOCC(=O)NC2CCC(C(c3ccccc3)N(C)C)CC2)c(C)c1` (stereo not shown) [Example 63, N-(4-((dimethylamino)(phenyl)methyl)cyclohexyl)-2-(2-(N,2,4,6-tetramethylphenylsulfamido)ethoxy)acetamide], in test [1], the “5-HT (inhibition of reuptake of serotonin, % inhibition)” value is 79%. The “B1R Ant. h [10 μM] % Inhibition” value in test [2] stood at 92%.
As to `CN(C)C(c1cccs1)C1CCC(CCNC(=O)COC2CCN(S(=O)(=O)c3cccc(C(F)(F)F)c3)C2)CC1` (stereo not shown) [Example 96, N-(2-(4-((dimethylamino)(thiophen-2-yl)methyl)cyclohexyl)ethyl)-2-(1-(3-(trifluoromethyl)phenylsulfonyl)pyrrolidin-3-yloxy)acetamide], the inhibition at 10 µM was found to be 81% in test [1] and 4% in test [2].
For `CN(C)C(c1cccs1)C1CCC(CNC(=O)COC2CCN(S(=O)(=O)c3ccc(F)cc3)C2)CC1` (stereo not shown) [Example 97, N-((4-((dimethylamino)(thiophen-2-yl)methyl)cyclohexyl)methyl)-2-(1-(4-fluorophenylsulfonyl)pyrrolidin-3-yloxy)acetamide], the inhibition at 10 µM in test [1] was 91%; in test [2], 1%.
As for `COc1cc(C)c(S(=O)(=O)N2CCC(OCC(=O)NC3CCC(C(c4cccs4)N(C)C)CC3)C2)c(C)c1` (stereo not shown) [Example 98, N-(4-((dimethylamino)(thiophen-2-yl)methyl)cyclohexyl)-2-(1-(4-methoxy-2,6-dimethylphenylsulfonyl)pyrrolidin-3-yloxy)acetamide], the figures for the inhibition at 10 µM in test [1] and in test [2] were 92% and 64%, respectively.
The matching figures for `CN(C)C(c1cccs1)C1CCC(CCNC(=O)COCCN2CCN(S(=O)(=O)c3ccccc3)CC2)CC1` (stereo not shown) [Example 99, N-(2-(4-((dimethylamino)(thiophen-2-yl)methyl)cyclohexyl)ethyl)-2-(2-(4-(phenylsulfonyl)piperazin-1-yl)ethoxy)acetamide]: 95% and -8%.
Turning to `CN(C)C(c1cccs1)C1CCC(CCNC(=O)COC2CCCN(S(=O)(=O)c3ccccc3)C2)CC1` (stereo not shown) [Example 100, N-(2-(4-((dimethylamino)(thiophen-2-yl)methyl)cyclohexyl)ethyl)-2-(1-(phenylsulfonyl)piperidin-3-yloxy)acetamide], the inhibition at 10 µM was 97% in test [1] and -3% in test [2].
Consider `CN(C)C(c1cccs1)C1CCC(CNC(=O)COCC2CCCN(S(=O)(=O)c3ccccc3)C2)CC1` (stereo not shown) [Example 101, N-((4-((dimethylamino)(thiophen-2-yl)methyl)cyclohexyl)methyl)-2-((1-(phenylsulfonyl)piperidin-3-yl)methoxy)acetamide], for which the figures for the inhibition at 10 µM in test [1] and in test [2] were 94% and 0%, respectively.
`CN(C)C(c1cccs1)C1CCC(CNC(=O)COCCN(Cc2ccccc2)S(=O)(=O)c2ccccc2)CC1` (stereo not shown) [Example 102, 2-(2-(N-benzylphenylsulfonamido)ethoxy)-N-((4-((dimethylamino)(thiophen-2-yl)methyl)cyclohexyl)methyl)acetamide]: the inhibition at 10 µM in test [1] was 92%; in test [2], -4%.
The corresponding values for `CCN(CCOCC(=O)NCCC1CCC(C(c2cccs2)N(C)C)CC1)S(=O)(=O)c1c(C)cc(OC)c(C)c1C` (stereo not shown) [Example 103, N-(2-(4-((dimethylamino)(thiophen-2-yl)methyl)cyclohexyl)ethyl)-2-(2-(N-ethyl-4-methoxy-2,3,6-trimethylphenylsulfonamido)ethoxy)acetamide] are 95% and 90%.
The corresponding values for `COc1cc(C)c(S(=O)(=O)N2CCC(OCC(=O)NCC3CCC(C(c4cccs4)N(C)C)CC3)CC2)c(C)c1C` (stereo not shown) [Example 104, N-((4-((dimethylamino)(thiophen-2-yl)methyl)cyclohexyl)methyl)-2-(1-(4-methoxy-2,3,6-trimethylphenylsulfonyl)piperidin-4-yloxy)acetamide] are 93% and 24%.
Consider `COc1ccc(S(=O)(=O)N2CCCC2COCC(=O)NCC2CCC(C(c3cccs3)N(C)C)CC2)cc1` (stereo not shown) [Example 105, N-((4-((dimethylamino)(thiophen-2-yl)methyl)cyclohexyl)methyl)-2-((1-(4-methoxyphenylsulfonyl)pyrrolidin-2-yl)methoxy)acetamide], for which the inhibition at 10 µM in test [1] is 95%; in test [2], 33%.
Turning to `COc1ccc(S(=O)(=O)N2CCCCC2COCC(=O)NCC2CCC(C(c3ccccc3)N(C)C)CC2)c(OC)c1` (stereo not shown) [Example 106, 2-((1-(2,4-dimethoxyphenylsulfonyl)piperidin-2-yl)methoxy)-N-((4-((dimethylamino)(phenyl)methyl)cyclohexyl)methyl)acetamide], the inhibition at 10 µM was determined as 85% in test [1] and 4% in test [2].
As to `COc1ccc(S(=O)(=O)N2CCCCC2COCC(=O)NCCC2CCC(C(c3cccs3)N(C)C)CC2)c(OC)c1` (stereo not shown) [Example 107, 2-((1-(2,4-dimethoxyphenylsulfonyl)piperidin-2-yl)methoxy)-N-(2-(4-((dimethylamino)(thiophen-2-yl)methyl)cyclohexyl)ethyl)acetamide], the inhibition at 10 µM in test [1] was 90%; in test [2], -4%.
As to `CN(C)C(c1ccccc1)C1CCC(CNC(=O)COCCN(C)S(=O)(=O)c2ccc(Cl)cc2)CC1` (stereo not shown) [Example 110, 2-(2-(4-chloro-N-methylphenylsulfonamido)ethoxy)-N-((4-((dimethylamino) (phenyl)methyl)cyclohexyl)methyl)acetamide], the inhibition at 10 µM in test [1] was found to be 94%; in test [2], 21%.
In the case of `COc1cc(C)c(S(=O)(=O)N(C)CCOCC(=O)NC2CCC(C(c3cccs3)N(C)C)CC2)c(C)c1` (stereo not shown) [Example 111, N-(4-((dimethylamino)(thiophen-2-yl)methyl)cyclohexyl)-2-(2-(4-methoxy-N,2,6-trimethylphenylsulfonamido)ethoxy)acetamide], the results for the inhibition at 10 µM in test [1] and in test [2] were 85% and 102%, respectively.
In the case of `CN(C)C(c1ccccc1)C1CCC(CNC(=O)COCCN(C)S(=O)(=O)c2ccc(F)cc2)CC1` (stereo not shown) [Example 112, N-((4-((dimethylamino)(phenyl)methyl)cyclohexyl)methyl)-2-(2-(4-fluoro-N-methylphenylsulfonamido)ethoxy)acetamide], the inhibition at 10 µM is 85% in test [1] and -1% in test [2].
The corresponding values for `CN(C)C(c1ccccc1)C1CCC(CNC(=O)COC2CCN(S(=O)(=O)c3cccc(C(F)(F)F)c3)C2)CC1` (stereo not shown) [Example 113, N-((4-((dimethylamino)(phenyl)methyl)cyclohexyl)methyl)-2-(1-(3-(trifluoromethyl)phenylsulfonyl)pyrrolidin-3-yloxy)acetamide] are 88% and -1%.
In the case of `CN(C)C(c1ccccc1)C1CCC(CNC(=O)COC2CCCN(S(=O)(=O)c3ccccc3)C2)CC1` (stereo not shown) [Example 114, N-((4-((dimethylamino)(phenyl)methyl)cyclohexyl)methyl)-2-(1-(phenylsulfonyl)piperidin-3-yloxy)acetamide], the inhibition at 10 µM is 96% in test [1] and -17% in test [2].
